# Assay results as given in ChEMBL document CHEMBL4265942, “Four new antitumor metabolites isolated from a mutant 3-f-31 strain derived from Penicillium purpurogenum G59” (Eur J Med Chem, 2018).
# Structures can show the parent of a compound that is named as a salt. Active and inactive are the calls of the source. The rule behind the calls is not given here.
# Assays:
# [1] = system: HT-29; assay: Antiproliferative activity against human HT-29 cells assessed as inhibition of cell growth after 72 hrs by sulforhodamine B assay; assay type: functional, cell-based; conditions: HT-29, 72 h
# [2] = system: SW480; assay: Antiproliferative activity against human SW480 cells assessed as inhibition of cell growth after 72 hrs by sulforhodamine B assay; assay type: functional, cell-based; conditions: SW480, 72 h
# [3] = system: HeLa; assay: Antiproliferative activity against human HeLa cells assessed as inhibition of cell growth after 72 hrs by sulforhodamine B assay; assay type: functional, cell-based
# [4] = system: HepG2; assay: Antiproliferative activity against human HepG2 cells assessed as inhibition of cell growth after 72 hrs by sulforhodamine B assay; assay type: functional, cell-based; conditions: HepG2, 72 h
# [5] = system: PC-3; assay: Antiproliferative activity against human PC3 cells assessed as inhibition of cell growth after 72 hrs by sulforhodamine B assay; assay type: functional, cell-based; conditions: PC-3, 72 h
# [6] = system: HCT-116; assay: Antiproliferative activity against human HCT116 cells assessed as inhibition of cell growth after 72 hrs by sulforhodamine B assay; assay type: functional, cell-based; conditions: HCT-116, 72 h
# [7] = system: PANC-1; assay: Antiproliferative activity against human PANC1 cells assessed as inhibition of cell growth after 72 hrs by sulforhodamine B assay; assay type: functional, cell-based; conditions: PANC-1, 72 h
# [8] = system: A549; assay: Antiproliferative activity against human A549 cells assessed as inhibition of cell growth after 72 hrs by sulforhodamine B assay; assay type: functional, cell-based; conditions: A549, 72 h
# [9] = system: LS180; assay: Antiproliferative activity against human LS180 cells assessed as inhibition of cell growth after 72 hrs by sulforhodamine B assay; assay type: functional, cell-based; conditions: LS180, 72 h
# [10] = system: K562; assay: Antiproliferative activity against human K562 cells assessed as inhibition of cell growth after 72 hrs by MTT assay; assay type: functional, cell-based; conditions: K562, 72 h
# [11] = system: BXPC-3; assay: Antiproliferative activity against human BxPC3 cells assessed as inhibition of cell growth after 72 hrs by sulforhodamine B assay; assay type: functional, cell-based; conditions: BXPC-3, 72 h
# [12] = system: L929; assay: Cytotoxicity against mouse L929 cells assessed as inhibition of cell growth after 72 hrs by MTT assay; assay type: cell-based; conditions: L929, 72 h
# [13] = system: MCF7; assay: Antiproliferative activity against human MCF7 cells assessed as inhibition of cell growth after 72 hrs by sulforhodamine B assay; assay type: functional, cell-based; conditions: MCF7, 72 h
# [14] = system: HL-60; assay: Antiproliferative activity against human HL60 cells assessed as inhibition of cell growth after 72 hrs by MTT assay; assay type: functional, cell-based; conditions: HL-60, 72 h
# [15] = system: NCI-H1975; assay: Antiproliferative activity against human NCI-H1975 cells assessed as inhibition of cell growth after 72 hrs by sulforhodamine B assay; assay type: functional, cell-based; conditions: NCI-H1975, 72 h
# [16] = system: HCT-116; assay: Down regulation of survivin expression in human HCT116 cells at 12.5 ug/ml after 48 hrs by Western blot analysis; assay type: functional, cell-based
# [17] = system: HCT-116; assay: Upregulation of p53 expression in human HCT116 cells at 12.5 ug/ml after 48 hrs by Western blot analysis; assay type: functional, cell-based
# [18] = system: BXPC-3; assay: Antiproliferative activity against human BxPC3 cells assessed as inhibition of cell growth at 1 uM after 72 hrs by sulforhodamine B assay relative to control; assay type: functional; conditions: BXPC-3, 72 h
# [19] = system: A549; assay: Antiproliferative activity against human A549 cells assessed as inhibition of cell growth at 1 uM after 72 hrs by sulforhodamine B assay relative to control; assay type: functional; conditions: A549, 72 h
# [20] = system: HeLa; assay: Antiproliferative activity against human HeLa cells assessed as inhibition of cell growth at 1 uM after 72 hrs by sulforhodamine B assay relative to control; assay type: functional
# [21] = system: PC-3; assay: Antiproliferative activity against human PC3 cells assessed as inhibition of cell growth at 1 uM after 72 hrs by sulforhodamine B assay relative to control; assay type: functional; conditions: PC-3, 72 h
# [22] = system: HepG2; assay: Antiproliferative activity against human HepG2 cells assessed as inhibition of cell growth at 1 uM after 72 hrs by sulforhodamine B assay relative to control; assay type: functional; conditions: HepG2, 72 h
# [23] = system: SW480; assay: Antiproliferative activity against human SW480 cells assessed as inhibition of cell growth at 1 uM after 72 hrs by sulforhodamine B assay relative to control; assay type: functional; conditions: SW480, 72 h
# [24] = system: K562; assay: Antiproliferative activity against human K562 cells assessed as inhibition of cell growth at 1 uM after 72 hrs by MTT assay relative to control; assay type: functional; conditions: K562, 72 h
# [25] = system: HL-60; assay: Antiproliferative activity against human HL60 cells assessed as inhibition of cell growth at 1 uM after 72 hrs by MTT assay relative to control; assay type: functional; conditions: HL-60, 72 h
# [26] = system: MCF7; assay: Antiproliferative activity against human MCF7 cells assessed as inhibition of cell growth at 1 uM after 72 hrs by sulforhodamine B assay relative to control; assay type: functional; conditions: MCF7, 72 h
# [27] = system: HCT-116; assay: Antiproliferative activity against human HCT116 cells assessed as inhibition of cell growth at 1 uM after 72 hrs by sulforhodamine B assay relative to control; assay type: functional; conditions: HCT-116, 72 h
# [28] = system: LS180; assay: Antiproliferative activity against human LS180 cells assessed as inhibition of cell growth at 1 uM after 72 hrs by sulforhodamine B assay relative to control; assay type: functional; conditions: LS180, 72 h
# [29] = system: HT-29; assay: Antiproliferative activity against human HT-29 cells assessed as inhibition of cell growth at 1 uM after 72 hrs by sulforhodamine B assay relative to control; assay type: functional; conditions: HT-29, 72 h
# [30] = system: PANC-1; assay: Antiproliferative activity against human PANC1 cells assessed as inhibition of cell growth at 1 uM after 72 hrs by sulforhodamine B assay relative to control; assay type: functional; conditions: PANC-1, 72 h
# [31] = system: NCI-H1975; assay: Antiproliferative activity against human NCI-H1975 cells assessed as inhibition of cell growth at 1 uM after 72 hrs by sulforhodamine B assay relative to control; assay type: functional; conditions: NCI-H1975, 72 h
compound,measurement,setting,value
CCCCCC[C@@H](C)C[C@@H](C)/C=C/C(=O)N[C@H]1C[C@@]2(O[C@@H]1OC)[C@@H]1O[C@@H]1[C@](O)(CC(C)=O)[C@@H]1O[C@@H]12,IC50,[1],9.85 µM
same,IC50,[2],3.85 µM
same,IC50,[3],8.65 µM
same,IC50,[4],9.58 µM
same,IC50,[5],6.33 µM
same,IC50,[6],2610 nM
same,IC50,[7],5.77 µM
same,IC50,[8],14.8 µM
same,IC50,[9],13.9 µM
same,IC50,[10],6.46 µM
same,IC50,[11],10.5 µM
same,IC50,[12],3.69 µM
same,IC50,[13],4.06 µM
same,IC50,[14],10.8 µM
same,IC50,[15],4.77 µM
COc1cc([C@@H]2c3cc4c(cc3[C@@H](O[C@@H]3O[C@@H]5CO[C@@H](C)O[C@H]5[C@H](O)[C@H]3O)[C@H]3COC(=O)[C@H]23)OCO4)cc(OC)c1O,Activity,[16],Active
same,Activity,[17],Active
COc1cccc2c1C(=O)c1c(O)c3c(c(O)c1C2=O)C[C@@](O)(C(=O)CO)C[C@@H]3O[C@H]1C[C@H](N)[C@H](O)[C@H](C)O1 [DOXORUBICIN HYDROCHLORIDE],inhibition at 1 µM,[18],70 to 98%
same,inhibition at 1 µM,[19],70 to 98%
same,inhibition at 1 µM,[20],70 to 98%
same,inhibition at 1 µM,[21],70 to 98%
same,inhibition at 1 µM,[22],70 to 98%
same,inhibition at 1 µM,[23],70 to 98%
same,inhibition at 1 µM,[24],70 to 98%
same,inhibition at 1 µM,[25],70 to 98%
same,inhibition at 1 µM,[26],70 to 98%
same,inhibition at 1 µM,[27],70 to 98%
same,inhibition at 1 µM,[28],70 to 98%
same,inhibition at 1 µM,[29],70 to 98%
same,inhibition at 1 µM,[30],70 to 98%
same,inhibition at 1 µM,[31],70 to 98%
